Columns and labels:
DesIV = target: T1, DesIV (Streptomyces venezuelae, UniProt Q9ZGH3); assay: HPLC, UV […] nm; assay type: biochemical; details: 1 mM TDP-D-glucose, 1 mM NAD+, 8 μM DesIV, 100 mM phosphate pH 8.0, 1 mM DTT, 5% glycerol, 25 °C
T1 construct: recombinant from E. coli (pET28/pET21-type vectors)
T1 sequence (Q9ZGH3 1-337): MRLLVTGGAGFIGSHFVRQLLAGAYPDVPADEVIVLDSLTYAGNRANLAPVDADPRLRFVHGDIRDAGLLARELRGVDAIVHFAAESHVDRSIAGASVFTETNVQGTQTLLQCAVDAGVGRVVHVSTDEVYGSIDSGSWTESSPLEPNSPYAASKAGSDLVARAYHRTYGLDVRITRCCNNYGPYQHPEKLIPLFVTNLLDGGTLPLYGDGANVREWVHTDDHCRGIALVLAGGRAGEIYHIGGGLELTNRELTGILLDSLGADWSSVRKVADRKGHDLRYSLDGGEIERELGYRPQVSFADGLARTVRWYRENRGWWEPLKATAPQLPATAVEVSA

EryCII/EryCIII = EryCII/EryCIII (Saccharopolyspora erythraea, UniProt A4F7P3); details: BL21(DE3)/pHL50, 100 mg/l αMEB, 10 μM IPTG, 20 °C, 72 h; TDP-D-desosamine made in the cell
EryBV = EryBV (Saccharopolyspora erythraea, UniProt O33939); details: BL21(DE3)/pHL71/pHL50, 100 mg/l 6dEB, 10 μM IPTG, 20 °C, 72 h; TDP-L-mycarose made in the cell

Cc1cn([C@H]2C[C@H](O)[C@@H](COP(=O)(O)OP(=O)(O)O[C@H]3O[C@H](CO)[C@@H](O)[C@H](O)[C@H]3O)O2)c(=O)[nH]c1=O [A, TDP-D-glucose]
HPLC, UV 264 nm (DesIV): Conversion of TDP-Glucose to TDP-4-Keto-6-Deoxy-Glucose by DesIV

CC[C@H]1OC(=O)[C@H](C)[C@@H](O[C@H]2C[C@@](C)(O)[C@@H](O)[C@H](C)O2)[C@H](C)[C@@H](O)[C@](C)(O)C[C@@H](C)C(=O)[C@H](C)[C@@H](O)[C@H]1C [L, αMEB]
% conversion (EryCII/EryCIII): ~ 25%

CC[C@H]1OC(=O)[C@H](C)[C@@H](O)[C@H](C)[C@@H](O)[C@@H](C)C[C@@H](C)C(=O)[C@H](C)[C@@H](O)[C@H]1C [6dEB]
whole-cell conversion to 6-deoxyerythromycin D (with EryCII/EryCIII), B. subtili (EryBV): EryBV, which ordinarily transfers the mycarose sugar onto erythronolide B, is also capable of recognizing 6dEB

Cc1cn([C@H]2C[C@H](O)[C@@H](COP(=O)(O)OP(=O)(O)O[C@H]3O[C@H](C)C(=O)[C@H](O)[C@H]3O)O2)c(=O)[nH]c1=O [B, TDP-4-keto-6-deoxy-D-glucose]
HPLC, UV 264 nm (DesIV): Conversion of TDP-Glucose to TDP-4-Keto-6-Deoxy-Glucose by DesIV
